The values below come from patent US20110237659A1, “CHROMENONE DERIVATIVES AS TRPV3 ANTAGONISTS” (GLENMARK PHARMACEUTICALS S.A., priority 2008, published 2011).

In the test the target is T1, Human TRPV3 (Homo sapiens, UniProt Q8NET8).
T1 construct: expressed in transfected cells; host or cells: CHO cells
T1 sequence (Q8NET8 1-790): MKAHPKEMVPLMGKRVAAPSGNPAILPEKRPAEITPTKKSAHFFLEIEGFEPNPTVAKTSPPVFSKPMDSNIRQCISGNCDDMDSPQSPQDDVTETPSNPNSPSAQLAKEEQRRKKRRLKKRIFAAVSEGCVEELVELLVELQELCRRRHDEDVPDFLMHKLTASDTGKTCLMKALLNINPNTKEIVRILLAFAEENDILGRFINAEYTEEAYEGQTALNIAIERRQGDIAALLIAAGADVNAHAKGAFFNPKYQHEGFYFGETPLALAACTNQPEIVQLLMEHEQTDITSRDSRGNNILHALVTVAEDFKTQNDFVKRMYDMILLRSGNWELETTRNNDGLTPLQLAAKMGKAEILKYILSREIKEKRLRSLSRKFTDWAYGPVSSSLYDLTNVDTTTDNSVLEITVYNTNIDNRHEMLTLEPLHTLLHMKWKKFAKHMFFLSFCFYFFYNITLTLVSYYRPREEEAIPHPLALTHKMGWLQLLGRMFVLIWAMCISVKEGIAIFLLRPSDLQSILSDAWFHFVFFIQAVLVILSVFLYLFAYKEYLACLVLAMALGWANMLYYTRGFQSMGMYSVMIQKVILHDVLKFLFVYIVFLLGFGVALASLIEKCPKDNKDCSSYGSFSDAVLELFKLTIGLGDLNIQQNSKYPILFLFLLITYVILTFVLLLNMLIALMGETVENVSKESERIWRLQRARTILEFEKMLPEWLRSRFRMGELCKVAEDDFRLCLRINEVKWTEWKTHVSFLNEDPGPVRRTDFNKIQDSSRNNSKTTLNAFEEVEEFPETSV
The test can be described thus: 45Calcium uptake assay: inhibition of 2-APB induced cellular uptake of radioactive calcium in human TRPV3 expressing CHO cells. The test is classed as cell-based. The conditions noted are these: 2-APB 500 μM; for inhibition at 1 µM: 1.0 μM test compound, read-out: Percentage inhibition at 1.0 μM; for inhibition at 10 µM: 10.0 μM test compound, read-out: Percentage inhibition at 10.0 μM. The text has this: The illustrative examples of the present invention are screened for TRPV3 activity according to a modified procedure described in (a) Tóth, A. et al. Life Sciences 2003, 73, 487-498. (b) McNamara C, R. et al. Proc. Natl. Acad. Sci. U.S.A., 2007, 104, 13525-13530. The screening of the compounds can be carried out by other methods and procedures known to persons skilled in the art.
Screening for TRPV3 Antagonist Using the ^45Calcium Uptake Assay
The inhibition of TRPV3 receptor activation was followed as inhibition of 2-aminoethxydiphenylborate (2-APB) induced cellular uptake of radioactive calcium. Test compounds were dissolved in dimethyl sulfoxide (DMSO) to prepare 20 mM stock solution and then diluted using plain medium with DMEM/F-12 containing 1.8 mM CaCl2 to get desired concentration. Final concentration of DMSO in the reaction was 0.5% (v/v). Human TRPV3 expressing CHO cells were grown in DMEM/F-12 medium with 10% FBS, 1% penicillin-streptomycin solution, 400 μg/mL of G-418. Cells were seeded 24 h prior to the assay in 96 well plates so as to get ˜50,000 cells per well on the day of experiment. Cells were treated with test compounds for 10 minutes followed by addition of 2-APB at a final concentration of 500 μM and 5 μCi/mL ^45Ca^+2 for 4 minutes. Cells were washed and lysed using buffer containing 1% Triton X-100, 0.1% deoxycholate and 0.1% SDS. Radioactivity in the lysate was measured in Packardt Top count after addition of liquid scintillant. Concentration response curves were plotted as a % of maximal response obtained in the absence of test antagonist. IC50 value was calculated from concentration response curve by nonlinear regression analysis using GraphPad PRISM software.
Percentage inhibition at concentrations of 1.0 μM and 10.0 μM are given in the table along with IC50 (nM) values for selected examples.

By inhibition is commonly meant the percentage by which the read-out fell short of the control. What is called IC50 is the concentration at which inhibition is half-maximal. As to `COc1cccc(/C=C/c2oc3ccccc3c(=O)c2-c2ccc(C#N)cc2)c1OCC(C)C` [Example 8, 4-{2-[(E)-2-[2-Isobutoxy-3-methoxyphenyl)-1-ethenyl]-4-oxo-4H-3-chromenyl}benzonitrile], the inhibition at 1 µM stood at 89.3%, the inhibition at 10 µM worked out at 96.4% and the concentration for half-maximal inhibition (IC50) was 0.05 to 0.15 µM.

With `N#Cc1ccc(-c2c(/C=C/c3cccc(OC(F)F)c3OCC3CC3)oc3ccccc3c2=O)cc1` [Example 4, 4-(2-{(E)-2-[2-(Cyclopropylomethoxy)-3-(difluoromethoxy)phenyl]vinyl}-4-oxo-4H-3-chromenyl}benzonitrile], the inhibition at 1 µM came to 92.9%, the inhibition at 10 µM came to 94.8% and the IC50 was 0.15 to 1 µM.

With `COc1cccc(/C=C/c2oc3ccccc3c(=O)c2-c2ccc(C#N)cc2)c1OC1CCCC1` [Example 5, 4-{2-[(E)-2-(2-Cyclopentyloxy-3-methoxyphenyl)-1-ethenyl]-4-oxo-4H-3-chromenyl}benzonitrile], the inhibition at 1 µM stood at 71.8%, the inhibition at 10 µM was determined as 90.3% and the half-inhibitory concentration (IC50) lay within 0.15 to 1 µM.
